# Laboratory results published in patent US20070026042A1, “System for treating aneurysmal disease” (priority 2005, published 2007).
# Assays:
# [1] = tested on: infrarenal abdominal aorta; experiment: Elastase-induced abdominal aortic aneurysm model in rats; format: in vivo, Wistar rats; settings: for relative efficacy in suppressing aneurysmal dilatation compared to Dox at the same dose / inhibition of aortic dilatation induced by elastase perfusion: 15 mg/kg/day; for inhibition of aortic dilatation induced by elastase perfusion: vs saline, Student's t-test
# Excerpt: Male Wistar rats (350-400 g) were subjected to perfusion of an isolated segment of the infrarenal abdominal aorta with 50 units of porcine pancreatic elastase, using the method described by Anidjar. et al. (Anidjar, S, Salzmann, J L, Generic, D, Lagneau, P, Camilleri, J P, and Michel, J B, “Elastase induced experimental aneurysms in rats,” Circulation 82:973-981 (1990); Halpern et al. (Halpern, V J. Liao, Nackman, G B, Gandhi, R H, Irizarry, E, Scholes, J V, Ramey, W G, and Tilson, M D, “The elastase infusion model of experimental aortic aneurysms: Synchrony of induction of endogenous protinases with matrix destruction and inflammatory cell response,” J. Vasc. Surg. […] Surg 23:336-346 (1996)). This method is an accepted model for experimental induction of abdominal aortic aneurysms. The animals (n=6 rats in each group) were then treated with twice-daily subcutaneous injections of either saline vehicle (control), or various doses of doxycycline (Dox) or one of four different, non-antibiotic, chemically-modified tetracyclines (CMTs; CollaGenex, Inc., Newtown, Pa.). Aortic diameter (AD) was measured with microcalipers before and after elastase perfusion, and just prior to sacrifice on day 7. Abdominal aortic aneurysms were defined as an increase in final AD to at least twice that measured before perfusion (≥ 100% increase). Aortic tissues from two animals in each group were perfusion-fixed with 10% neutral buffered formalin, embedded in paraffin, and stained with Verhoeff-van Geisen (WG) for elastin. Tissues from the remaining animals were extracted, normalized to total protein, and analyzed by gelatin substrate zymography as described (Thompson et al. 1995; Halpern et al. 1994; Petrinec 1996).
# For saline-treated control animals, mean AD increased by 125.±.18%, and 5 of the 6 (83%) of the animals had abdominal aortic aneurysms as defined.
# [2] = Liquid formulations of sirolimus and analogs: drug concentration by liquid chromatography, visual observation; format: physicochemical; settings: Vitamin E TPGS, water, ethanol less than two percent
# Method: Certain excipients, such as Vitamin E TPGS and BHT may be utilized to enhance the storage stability of sirolimus compounds through their anti-oxidation properties.
# The concentrations of each constituent were determined by liquid chromatography and are presented as weight by volume figures.
# In another exemplary embodiment, the liquid formulation of sirolimus comprises water and ethanol as co-solvents and Vitamin E TPGS as the excipient. The liquid formulation was created utilizing the following process. Two hundred milligrams of sirolimus and two grams of ethanol were added to a pre-weighed twenty milliliter scintillation vial. The vial was vortexed and sonicated until the sirolimus was completely dissolved. Approximately six hundred milligrams of Vitamin E TPGS was then added to the solution of ethanol and sirolimus. The vial was vortexed again until a clear yellowish solution was obtained. Nitrogen gas was then used to reduce the amount of ethanol in the vial to approximately two hundred twenty-nine milligrams. In a separate vial, three hundred milligrams of Vitamin E TPGS was dissolved in eleven milliliters of purified water while undergoing vortexing. The Vitamin E TPGS and water solution was then added to the first vial containing the sirolimus, Vitamin E TPGS and ethanol. The first vial was then vortexed vigorously and continuously for three minutes. […]
# [3] = tested on: human coronary artery smooth muscle cells; experiment: Anti-proliferative activity in cultured human coronary artery smooth muscle cells; format: cell-based
# Excerpt: The multiple curves represent various concentrations of mycophenolic acid ranging from zero to one thousand nanomolar concentrations.
# FIG. […]
# The multiple curves represent various concentrations of cladribine ranging from zero to nine hundred nanomolar concentrations.
# (§1) The multiple curves represent various concentrations of topotecan ranging from zero to three hundred nanomolar concentrations.
# (§2) The multiple curves represent various concentrations of etoposide ranging from zero to eight hundred nanomolar concentrations.
# The multiple curves represent various concentrations of Panzem® ranging from zero to 100 micromolar concentrations.
# [4] = tested on: human coronary artery smooth muscle cell; experiment: MTS cytotoxicity assay; format: cell-based; settings: 6.6 nanomolar to 30,000.00 nanomolar, FIG. 69
# Excerpt: Typically, a control is utilized to determine baseline toxicity.
# [5] = Cell viability assay (cytotoxicity); format: cell-based
# Excerpt: as §1, §2
# [6] = tested on: tumor cell lines; settings: Woo et al., J. Med Chem 2002; cited from earlier work
# [7] = non-synchronized cells, two percent fetal bovine serum
# [8] = synchronized cells, two percent fetal bovine serum
molecule,measurement,setting,value
4-dedimethylamino-12a-deoxytetracycline [CMT-7],relative efficacy in suppressing aneurysmal dilatation compared to Dox at the same dose,[1],92%
same,inhibition of aortic dilatation induced by elastase perfusion,[1],statistically significant
CO[C@H]1C[C@@H]2CC[C@@H](C)[C@@](O)(O2)C(=O)C(=O)N2CCCC[C@H]2C(=O)O[C@H]([C@H](C)C[C@@H]2CC[C@@H](OC(=O)C(C)(CO)CO)[C@H](OC)C2)CC(=O)[C@H](C)/C=C(\C)[C@@H](O)[C@@H](OC)C(=O)[C@H](C)C[C@H](C)/C=C/C=C/C=C/1C [CCI-779],concentration of CCI-779 in the final solution (HPLC),[2],15000 µg/mL
"NC(=O)C1=C(O)C[C@@H]2C[C@@H]3Cc4cccc(O)c4C(=O)C3=C(O)[C@]2(O)C1=O [CMT-3, 6-demethyl-6-deoxy 4-dedimethylaminotetracycline]",relative efficacy in suppressing aneurysmal dilatation compared to Dox at the same dose,[1],92%
same,inhibition of aortic dilatation induced by elastase perfusion,[1],statistically significant
"CC1(O)c2c(Cl)ccc(O)c2C(=O)C2=C(O)C3(O)C(=O)C(C(N)=O)=C(O)CC3CC21 (stereo not drawn) [CMT-4, 4-dedimethylamino-7-chlorotetra-cycline]",relative efficacy in suppressing aneurysmal dilatation compared to Dox at the same dose,[1],75%
same,inhibition of aortic dilatation induced by elastase perfusion,[1],did not reach statistical significance
"C[C@H]1c2cccc(O)c2C(O)=C2C(=O)[C@]3(O)C(O)=C(C(N)=O)C(=O)C[C@@H]3[C@@H](O)[C@@H]21 [CMT-8, 6-α-deoxy-5-hydroxy-4-dedimethylaminotetracycline]",relative efficacy in suppressing aneurysmal dilatation compared to Dox at the same dose,[1],105%
same,inhibition of aortic dilatation induced by elastase perfusion,[1],statistically significant
"Nc1nc(Cl)nc2c1ncn2[C@H]1C[C@H](O)[C@@H](CO)O1 [Cladribine, 2-chlorodeoxyadenosine]",inhibition of human coronary artery smooth muscle cell proliferation,"[3]; non-synchronized cells stimulated with two percent fetal bovine serum, FIG. 58",completely inhibits
same,effect of addition to rapamycin-treated cells on the anti-proliferative rapamycin dose response curve,[3]; [7],leftward and upward shift
"C[C@H]1c2cccc(O)c2C(=O)C2=C(O)[C@]3(O)C(=O)C(C(N)=O)=C(O)[C@@H](N(C)C)[C@@H]3[C@@H](O)[C@@H]21 [Dox, doxycycline]",aortic dilatation (mean increase in aortic diameter),"[1]; 60 mg/kg/day, twice-daily subcutaneous injections, day 7, saline control 125.±.18%",61.±.7%
same,dose of maximal inhibition of aortic dilatation,"[1]; dose-dependent effect, FIG. 76",about 12.5 mg/kg/day
"COc1cc2c(cc1O)CC[C@@H]1[C@@H]2CC[C@]2(C)[C@@H](O)CC[C@@H]12 [Panzem®, 2-methoxyestradiol]",cell survival in MTS assay,[4],do not reduce human coronary artery smooth muscle cell survival
same,effect of addition to rapamycin-treated cells on the anti-proliferative rapamycin dose response curve,[3]; [8],increases the percent of inhibition of rapamycin alone
same,inhibition of human coronary artery smooth muscle cell proliferation in vitro,"[3]; synchronized cells, two percent fetal bovine serum, FIG. 66",extremely effective inhibitor
COc1cc([C@@H]2c3cc4c(cc3[C@@H](O[C@@H]3O[C@@H]5CO[C@@H](C)O[C@H]5[C@H](O)[C@H]3O)[C@H]3COC(=O)[C@H]23)OCO4)cc(OC)c1O [etoposide],cytotoxicity in cell viability assay,[5]; concentrations up to ten micromolar,non-cytotoxic
same,effect of addition to rapamycin-treated cells on the anti-proliferative rapamycin dose response curve,[3]; [7],leftward and upward shift
COc1c(C)c2c(c(O)c1C/C=C(\C)CCC(=O)O)C(=O)OC2 [mycophenolic acid],effect of addition to rapamycin-treated cells on the anti-proliferative rapamycin dose response curve,[3]; [7],leftward and upward shift
CC[C@@]1(O)C(=O)OCc2c1cc1n(c2=O)Cc2cc3c(CN(C)C)c(O)ccc3nc2-1 [topotecan],cytotoxicity in cell viability assay,[5]; concentrations up to one micromolar,non-cytotoxic
same,effect of addition to rapamycin-treated cells on the anti-proliferative rapamycin dose response curve,[3]; [8],leftward and upward shift
CC(/C=C/C(=O)NO)=C\[C@@H](C)C(=O)c1ccc(N(C)C)cc1 [trichostatin A],anti-proliferative IC50's,[6],low nM range
same,IC50,[3]; in vitro cell culture studies,~6 nM
same,inhibition of human coronary artery smooth muscle cell proliferation,"[3]; in vitro cell culture studies, FIG. 51",completely inhibit
